Measurements from ChEMBL document CHEMBL1165895, “A novel series of cytotoxic iridoid glucosides derived from aucubin: design, synthesis and structure-activity relationships” (Eur J Med Chem, 2010).

Tests used:
[1] = test system: L1210; test: Cytotoxicity against mouse L1210 cells after 48 hrs by microculture tetrazolium assay; format: functional, cell-based; settings: L1210, 48 h
[2] = Cytotoxicity against human KB3-1 cells after 96 hrs by microculture tetrazolium assay; format: functional, cell-based; settings: KB 3-1, 96 h
[3] = test system: L1210; test: Cell cycle arrest in mouse L1210 cells assessed as accumulation at G2M phase at 10 uM after 21 hrs using propidium iodide staining by flow cytometry; format: functional
[4] = test system: L1210; test: Cell cycle arrest in mouse L1210 cells assessed as accumulation at S phase at 10 uM after 21 hrs using propidium iodide staining by flow cytometry; format: functional
[5] = test system: L1210; test: Cell cycle arrest in mouse L1210 cells assessed as accumulation at G1 phase at 10 uM after 21 hrs using propidium iodide staining by flow cytometry; format: functional

SMILES	IC50 [1] [µM]	IC50 [2] [µM]	Activity [3] [%]	Activity [4] [%]	Activity [5] [%]
CC(C)(C)C(=O)OCC1=C[C@@H](OC(=O)C(C)(C)C)C2=CC(=O)O[C@@H](O[C@@H]3O[C@H](COC(=O)C(C)(C)C)[C@@H](OC(=O)C(C)(C)C)[C@H](OC(=O)C(C)(C)C)[C@H]3OC(=O)C(C)(C)C)[C@H]12	4	0.42	45	19	36
CC1=C[C@@H](OC(=O)C(C)(C)C)C2=CC(=O)O[C@@H](O[C@@H]3O[C@H](COC(=O)C(C)(C)C)[C@@H](OC(=O)C(C)(C)C)[C@H](OC(=O)C(C)(C)C)[C@H]3OC(=O)C(C)(C)C)[C@H]12	24.8	7.2	–	–	–
